Literature values in patent US20180271890A1, “Solid Pharmaceutical Composition Comprising Amorphous Sofosbuvir” (priority 2015, published 2018).

Row | Compound | behaviour under stress conditions (40 °C, relative humidity 75%) | relative humidity at which the substance deliquesces (amorphous form)
1 | CC(C)OC(=O)[C@H](C)N[P@](=O)(OC[C@H]1O[C@@H](n2ccc(=O)[nH]c2=O)[C@](C)(F)[C@@H]1O)Oc1ccccc1 [sofosbuvir, (S)-isopropyl 2-(((S)-(((2R,3R,4R,5R)-5-(2,4-dioxo-3,4-dihydropyrimidin-1(2H)-yl)-4-fluoro-3-hydroxy-4-methyltetrahydrofuran-2-yl)methoxy)(phenoxy)phosphoryl)-amino)propanoate] | deliquesces after a few hours | 
2 | CC(C)OC(=O)[C@H](C)N[P@](=O)(OC[C@H]1O[C@@H](n2ccc(=O)[nH]c2=O)[C@](C)(F)[C@@H]1O)Oc1ccccc1 [Amorphous sofosbuvir, (S)-isopropyl 2-(((S)-(((2R,3R,4R,5R)-5-(2,4-dioxo-3,4-dihydropyrimidin-1(2H)-yl)-4-fluoro-3-hydroxy-4-methyltetrahydrofuran-2-yl)methoxy)(phenoxy)phosphoryl)-amino)propanoate] |  | above 50%
